Test results: US7884135B2, “Modafinil-based treatment for premature ejaculation” (NeuroHealing Pharmaceuticals, Inc., priority 2006, dated 2011)

Key:
mice = settings: cited from earlier work
[1] = pharmacokinetic studies of modafinil in the human body (literature); type: in vivo; settings: l-enantiomer versus d-enantiomer
Procedure: The optical enantiomers of modafinil have similar pharmacological actions in animals. […] Owing to the differences in half-life and rate of clearance of the individual enantiomers, the use of racemic modafinil results in differences in the circulating levels of the two enantiomers. […] After a single oral dose, racemic modafinil is readily absorbed, reaching maximum plasma concentrations at 2 hours to 4 hours after administration (see, e.g., Wong et al., J. Clin. Pharmacol., 39: 3040 (1999); Wong et al., J. Clin. Pharmacol., 39: 281-288 (1999); Robertson et al., Clin. Pharmacokinet., 42: 123-137 (2003); and Dinges et al., Curr. Medical Research and Opinions, 22: 159-169 (2006)).

[2] = tested on: ejaculation during sexual activity; assay: Delayed ejaculation with sublingually administered d-modafinil (Example 1, Subject 1); type: in vivo, human; settings: 100 mg d-modafinil formulation sublingually
Procedure: The synthesized d-modafinil was compounded into a composition containing sugar, spearmint flavor, cinnamon flavor, gum arabic, gelatin, corn syrup, and dyes that could be administered sublingually. Formulations containing 100 mg of d-modafinil were prepared.
Subject 1 took the above-described formulation of d-modafinil sublingually at 9:00 pm in the course of testing a composition containing d-modafinil for a different effect unrelated to sexual activity.

[3] = cited from earlier work
[4] = tested on: ejaculation during sexual activity; assay: Delayed ejaculation with orally administered (tablet) racemic modafinil (Example 2, Subject 2); type: in vivo, human; settings: 200 mg oral PROVIGIL tablet, hours after dosing
Procedure: Subject 2 took racemic modafinil (200 mg) in the form of an orally administrable tablet of PROVIGIL® (Cephalon) at 3:00 pm for the purpose of increasing alertness.

SMILES | pharmacological activity compared with the modafinil racemic compound (mice) | half-life relative to the d-enantiomer [1] | time to ejaculate during sexual activity, factor longer than usual ([2]; first administration) | time to ejaculate during sexual intercourse, factor of delay ([2]; second administration a week later) | amount in the circulation relative to l-modafinil ([3]; after use of racemic modafinil) | elimination rate relative to l-modafinil ([3]; human, d-modafinil versus l-modafinil) | fraction of modafinil eliminated by the liver ([3]; humans, ingestion of PROVIGIL tablets, package insert) [%] | delay in ejaculation during sexual activity [4]
NC(=O)C[S@@+]([O-])C(c1ccccc1)c1ccccc1 [l-modafinil, R-(−)-modafinil, reference compound] | same pharmacological activity | approximately three-times longer | – | – | – | – | – | –
NC(=O)C[S@+]([O-])C(c1ccccc1)c1ccccc1 [d-modafinil, S-(+)-modafinil] | same pharmacological activity | – | about two to three | about two to three | three times less | three times faster | – | –
NC(=O)C[S+]([O-])C(c1ccccc1)c1ccccc1 (racemic) [modafinil, 2-[(diphenylmethyl)sulfinyl]acetamide] | – | – | – | – | – | – | ≤ 90 | experienced a delay in ejaculation
